# According to patent US8367658B2, “Pyrazin-2-yl-pyridin-2-yl-amine and pyrazin-2-yl-pyrimidin-4-yl-amine compounds and their use” (Cancer Research Technology Limited, priority 2007, dated 2013):
# Target: T1, CHK1 (Homo sapiens, UniProt O14757)
# T1 sequence (O14757 1-476): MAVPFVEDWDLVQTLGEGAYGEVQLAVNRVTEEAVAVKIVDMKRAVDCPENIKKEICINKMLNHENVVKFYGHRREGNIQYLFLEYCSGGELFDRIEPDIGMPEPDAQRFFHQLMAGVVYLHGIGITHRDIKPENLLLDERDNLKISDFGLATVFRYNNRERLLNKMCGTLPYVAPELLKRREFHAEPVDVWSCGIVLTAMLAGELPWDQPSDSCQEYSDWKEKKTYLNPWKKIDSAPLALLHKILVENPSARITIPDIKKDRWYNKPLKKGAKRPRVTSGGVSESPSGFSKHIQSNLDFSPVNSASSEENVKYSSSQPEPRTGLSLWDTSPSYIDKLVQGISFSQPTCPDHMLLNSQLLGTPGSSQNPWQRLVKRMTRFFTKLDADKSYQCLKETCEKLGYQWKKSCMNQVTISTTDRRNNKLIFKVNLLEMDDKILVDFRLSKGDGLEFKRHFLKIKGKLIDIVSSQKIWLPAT
# Assay: CHK1 kinase function inhibition assay (DELFIA, phosphorylation of a CDC25C peptide)
# Assay type: biochemical
# Settings: CHK1 1 nM, ATP 30 μM, 30 minutes at room temperature
# Procedure: Measurement of Inhibition of CHK1 Kinase Function
# CHK1 kinase function was measured in a DELFIA® assay in order to monitor phosphorylation of a CDC25C peptide using a specific phospho antibody.
# The reaction mixture was incubated for 30 minutes at room temperature and then stopped by the addition of buffer (125 μL) containing 40 mM EDTA, 0.05% Tween 20, 0.1% BSA in TBS (10× concentrate, Sigma). An aliquot (100 μL) of the stopped reaction mixture was transferred to a black neutravidin-coated plate (Perbio) and incubated for 1 hour on a shaker (Titertek, Flow Laboratories) at room temperature. […] The plates were washed a further four times with wash buffer before the addition of enhancement solution (100 μL/well, PerkinElmer Life Sciences).
row,Structure (SMILES),IC50 [nM]
1,"N#Cc1cnc(Nc2cc(NC3CCCCC3)c(N)cn2)cn1 [Compound Y-045, 5-(5-Amino-4-(cyclohexylamino)pyridin-2-ylamino)pyrazine-2-carbonitrile]",1000 to 10000
2,"CN(C)CC(=O)Nc1cnc(Nc2cnc(C#N)cn2)cc1N[C@H]1CCCNC1 [Compound Y-046, (S)—N-(6-(5-Cyanopyrazin-2-ylamino)-4-(piperidin-3-ylamino)pyridin-3-yl)-2-(dimethylamino)acetamide]",1000 to 10000
3,"N#Cc1cnc(Nc2cc(NC[C@H]3CCCNC3)c(N)cn2)cn1 [Compound Y-047, (S)-5-(5-Amino-4-(piperidin-3-ylmethylamino)pyridin-2-ylamino)pyrazine-2-carbonitrile]",≤ 100
4,"N#Cc1cnc(Nc2cc(NC[C@@H]3CCCNC3)c(N)cn2)cn1 [Compound Y-048, (R)-5-(5-Amino-4-(piperidin-3-ylmethylamino)pyridin-2-ylamino)pyrazine-2-carbonitrile]",≤ 100
5,"N#Cc1cnc(Nc2cc(NCCC(N)c3ccccc3)c(N)cn2)cn1 (stereo not shown) [Compound Y-050, 5-(5-Amino-4-(3-amino-3-phenylpropylamino)pyridin-2-ylamino)pyrazine-2-carbonitrile]",1000 to 10000
6,"N#Cc1cnc(Nc2cc(NCC3CCCCN3)c(N)cn2)cn1 (stereo not shown) [Compound Y-051, 5-(5-Amino-4-(piperidin-2-ylmethylamino)pyridin-2-ylamino)pyrazine-2-carbonitrile]",1000 to 10000
7,"N#Cc1cnc(Nc2cc(NCCC[C@H](N)C(=O)Nc3ccccc3)c(N)cn2)cn1 [Compound Y-052, (S)-2-Amino-5-(5-amino-2-(5-cyanopyrazin-2-ylamino)pyridin-4-ylamino)-N-phenylpentanamide]",1000 to 10000
8,"N#Cc1cnc(Nc2cc(NCC3CCCNC3)c(NC(=O)CCC3CCNCC3)cn2)cn1 (stereo not shown) [Compound Y-053, N-(6-(5-Cyanopyrazin-2-ylamino)-4-(piperidin-3-ylmethylamino)pyridin-3-yl)-3-(piperidin-4-yl)propanamide]",≤ 100
9,"Cc1ncsc1CCC(=O)Nc1cnc(Nc2cnc(C#N)cn2)cc1NCC1CCCNC1 (stereo not shown) [Compound Y-054, N-(6-(5-Cyanopyrazin-2-ylamino)-4-(piperidin-3-ylmethylamino)pyridin-3-yl)-3-(4-methylthiazol-5-yl)propanamide]",1000 to 10000
10,"N#Cc1cnc(Nc2cc(NCC3CCCNC3)c(NC(=O)CCN3CCOCC3)cn2)cn1 (stereo not shown) [Compound Y-055, N-(6-(5-Cyanopyrazin-2-ylamino)-4-(piperidin-3-ylmethylamino)pyridin-3-yl)-3-morpholinopropanamide]",100 to 1000
11,"N#Cc1cnc(Nc2cc(NCC3CCCNC3)c(-n3cccc3)cn2)cn1 (stereo not shown) [Compound Y-056, 5-(4-(Piperidin-3-ylmethylamino)-5-(1H-pyrrol-1-yl)pyridin-2-ylamino)pyrazine-2-carbonitrile]",≤ 100
12,"N#Cc1cnc(Nc2cc(N[C@@H]3CCCNC3)c(-n3cccc3)cn2)cn1 [Compound Y-057, (R)-5-(4-(Piperidin-3-ylamino)-5-(1H-pyrrol-1-yl)pyridin-2-ylamino)pyrazine-2-carbonitrile]",100 to 1000
13,"CN1CCC(Nc2cc(Nc3cnc(C#N)cn3)ncc2-n2cccc2)CC1 [Compound Y-058, 5-(4-(1-Methylpiperidin-4-ylamino)-5-(1H-pyrrol-1-yl)pyridin-2-ylamino)pyrazine-2-carbonitrile]",≤ 100
14,"N#Cc1cnc(Nc2cc(NCC3CCCNC3)c(N3CCCC3)cn2)cn1 (stereo not shown) [Compound Y-059, 5-(4-(Piperidin-3-ylmethylamino)-5-(pyrrolidin-1-yl)pyridin-2-ylamino)pyrazine-2-carbonitrile]",≤ 100
15,"N#Cc1cnc(Nc2cc(NCC3CCCNC3)c(N3CC[C@H](O)C3)cn2)cn1 (stereo partly drawn) [Compound Y-060, 5-(5-((S)-3-Hydroxypyrrolidin-1-yl)-4-(piperidin-3-ylmethylamino)pyridin-2-ylamino)pyrazine-2-carbonitrile]",≤ 100
16,"N#Cc1cnc(Nc2cc(NCC3CCCNC3)c(-n3ccc(CN4CCOCC4)c3)cn2)cn1 (stereo not shown) [Compound Y-062, 5-(5-(3-(Morpholinomethyl)-1H-pyrrol-1-yl)-4-(piperidin-3-ylmethylamino)pyridin-2-ylamino)pyrazine-2-carbonitrile]",≤ 100
17,"N#Cc1cnc(Nc2cc(NCC3CCCNC3)c(-n3ccc(CO)c3)cn2)cn1 (stereo not shown) [Compound Y-063, 5-(5-(3-(Hydroxymethyl)-1H-pyrrol-1-yl)-4-(piperidin-3-ylmethylamino)pyridin-2-ylamino)pyrazine-2-carbonitrile]",≤ 100

row,Structure (SMILES),IC50 [nM]
1,"CCOC(=O)c1ccn(-c2cnc(Nc3cnc(C#N)cn3)cc2NCC2CCCNC2)c1 (stereo not shown) [Compound Y-064, Ethyl 1-(6-(5-cyanopyrazin-2-ylamino)-4-(piperidin-3-ylmethylamino)pyridin-3-yl)-1H-pyrrole-3-carboxylate]",≤ 100
2,"N#Cc1cnc(Nc2cc(NCC3CCCNC3)c(-n3ccc(C(=O)O)c3)cn2)cn1 (stereo not shown) [Compound Y-065, 1-(6-(5-Cyanopyrazin-2-ylamino)-4-(piperidin-3-ylmethylamino)pyridin-3-yl)-1H-pyrrole-3-carboxylic acid]",100 to 1000
3,"N#Cc1cnc(Nc2cc(NCC3CCCNC3)c(-n3ccc(C(=O)NCCO)c3)cn2)cn1 (stereo not shown) [Compound Y-066, 1-(6-(5-Cyanopyrazin-2-ylamino)-4-(piperidin-3-ylmethylamino)pyridin-3-yl)-N-(2-hydroxyethyl)-1H-pyrrole-3-carboxamide]",100 to 1000
4,"N#Cc1cnc(Nc2cc(NCC3CCCNC3)c(-n3ccc(C(=O)NCCCO)c3)cn2)cn1 (stereo not shown) [Compound Y-067, 1-(6-(5-Cyanopyrazin-2-ylamino)-4-(piperidin-3-ylmethylamino)pyridin-3-yl)-N-(3-hydroxypropyl)-1H-pyrrole-3-carboxamide]",≤ 100
5,"N#Cc1cnc(Nc2cc(OCC3CCOC3)c(NC(=O)CCC3CCNCC3)cn2)cn1 (stereo not shown) [Compound Y-068, N-(6-(5-Cyanopyrazin-2-ylamino)-4-((tetrahydrofuran-3-yl)methoxy)pyridin-3-yl)-3-(piperidin-4-yl)propanamide]",1000 to 10000
6,"N#Cc1cnc(Nc2cc(OCC3CCOCC3)c(NC(=O)CCC3CCNCC3)cn2)cn1 [Compound Y-069, N-(6-(5-Cyanopyrazin-2-ylamino)-4-((tetrahydro-2H-pyran-4-yl)methoxy)pyridin-3-yl)-3-(piperidin-4-yl)propanamide]",1000 to 10000
7,"COC(=O)c1cnc(Nc2cnc(C#N)cn2)cc1N(C)C1CCN(C)CC1 [Compound Y-070, Methyl 6-(5-cyanopyrazin-2-ylamino)-4-(methyl(1-methylpiperidin-4-yl)amino)nicotinate]",≤ 100
8,"COC(=O)c1cnc(Nc2cnc(C#N)cn2)cc1NC1CC2CCCC(C1)N2C (stereo not shown) [Compound Y-071, Methyl 6-(5-cyanopyrazin-2-ylamino)-4-(9-methyl-9-azabicyclo[3.3.1]-nonan-3-ylamino)nicotinate]",100 to 1000
9,"COC(=O)c1cnc(Nc2cnc(C#N)cn2)cc1NCC1CCCCN1 (stereo not shown) [Compound Y-073, Methyl 6-(5-cyanopyrazin-2-ylamino)-4-(piperidin-2-ylmethylamino)-nicotinate]",≤ 100
10,"COC(=O)c1cnc(Nc2cnc(C#N)cn2)cc1NC1CCCNCC1 (stereo not shown) [Compound Y-076, Methyl 4-(azepan-4-ylamino)-6-(5-cyanopyrazin-2-ylamino)nicotinate]",≤ 100
11,"CCCN1CCC(Nc2cc(Nc3cnc(C#N)cn3)ncc2C(=O)OC)CC1 [Compound Y-077, Methyl 6-(5-cyanopyrazin-2-ylamino)-4-(1-propylpiperidin-4-ylamino)nicotinate]",≤ 100
12,"COC(=O)c1cnc(Nc2cnc(C#N)cn2)cc1NC1CCNCC1 [Compound Y-078, Methyl 6-(5-cyanopyrazin-2-ylamino)-4-(piperidin-4-ylamino)nicotinate]",≤ 100
13,"CCCN1C2CCC1CC(Nc1cc(Nc3cnc(C#N)cn3)ncc1C(=O)OC)C2 (stereo not shown) [Compound Y-079, Methyl 6-(5-cyanopyrazin-2-ylamino)-4-(8-propyl-8-azabicyclo[3.2.1]octan-3-ylamino)nicotinate]",≤ 100
14,"COC(=O)c1cnc(Nc2cnc(C#N)cn2)cc1NC1CC2CCC(C1)N2Cc1ccccn1 (stereo not shown) [Compound Y-080, Methyl 6-(5-cyanopyrazin-2-ylamino)-4-(8-(pyridin-2-ylmethyl)-8-azabicyclo[3.2.1]octan-3-ylamino)nicotinate]",≤ 100
15,"COC(=O)c1cnc(Nc2cnc(C#N)cn2)cc1NCC[C@H]1CNCCO1 [Compound Y-082, (S)-Methyl 6-(5-cyanopyrazin-2-ylamino)-4-(2-(morpholin-2-yl)ethylamino)nicotinate]",≤ 100
16,"COC(=O)c1cnc(Nc2cnc(C#N)cn2)cc1NCC1(F)CCNCC1 [Compound Y-083, Methyl 6-(5-Cyanopyrazin-2-ylamino)-4-((4-fluoropiperidin-4-yl)methylamino)nicotinate]",≤ 100
17,"COCCNC(=O)c1cnc(Nc2cnc(C#N)cn2)cc1NCC1CCNCC1 [Compound Y-084, 6-(5-Cyanopyrazin-2-ylamino)-N-(2-methoxyethyl)-4-(piperidin-4-ylmethylamino)nicotinamide]",≤ 100
